pKi: −log10 of the molar value.

One data set has as its system caspase-3 in A549 cells. Kind of data set: Active caspase-3 flow cytometry. It is filed as cell-based, human. Particulars: A549, 48 h; 10, 20 and 40 µM per method. How it is done: The rate of cell apoptosis and necrosis was detected using Annexin V-FITC/PI double staining. […] Compound 3e turned out to be a stronger inducer of apoptosis than 3c. […] In turn, compound 3c induced apoptosis only at the concentrations of 10 and 20 µM, and the percentage of cells undergoing apoptosis increased from 6.05 ± 0.17% in the control to 10.14 ± 0.76% and 14.67 ± 0.68%, respectively (Figure 4B). Moreover, compound 3e at a concentration of 5 µM induced apoptosis to a similar level as cisplatin (CDDP) used at a concentration of 4 µM. To identify the mechanism of the 3c- and 3e-induced apoptosis in the A549 cells, the activation of effector caspase-3 was evaluated by flow cytometry. […] To further explore the antiproliferative activity of compounds 3c and 3e, the influence of both compounds on the distribution of cell cycle phases in the A549 cells was analyzed. […]
The fluorescence-activated cell sorting (FACS) technique was employed to analyze the 3c- and 3e-induced cell death, the activation of executive caspase-3, and the cell cycle in the A549 cells. The quantitative analysis of apoptosis and necrosis was performed using an Annexin V-fluorescein isothiocyanate (FITC)/ propidium iodide (PI) apoptosis kit (BD Biosciences, BD Pharmingen™, San Jose, CA, USA) as previously described. […] The results were calculated as a percent of cells with active caspase-3 among all the analyzed cells. […]
On the technique in general: A flow cytometer gives signals particle by particle.

Data set [1] addresses T1, human neutrophil elastase (HNE) (Homo sapiens, UniProt P08246).
T1 sequence (P08246 30-267): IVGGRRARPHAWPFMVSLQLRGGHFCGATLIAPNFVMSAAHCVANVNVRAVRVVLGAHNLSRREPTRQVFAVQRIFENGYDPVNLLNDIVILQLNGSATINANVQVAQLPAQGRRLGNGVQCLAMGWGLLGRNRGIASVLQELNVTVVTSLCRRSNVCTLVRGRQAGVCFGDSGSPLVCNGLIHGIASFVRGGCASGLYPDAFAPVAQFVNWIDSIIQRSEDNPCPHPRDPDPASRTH
Kind of data set: Kinetic analysis of the inhibition of human neutrophil elastase (Lineweaver-Burk, Dixon, secondary plots). The format is biochemical. Conditions: for Inhibition Type: Lineweaver-Burk and Dixon analysis; for Kis (enzyme-substrate-inhibitor dissociation constant): secondary plot of intercept versus inhibitor concentration; for pKi: secondary plot of slope versus inhibitor concentration, read-out: Ki (enzyme-inhibitor dissociation constant). How it is done:
Next, kinetic analysis of the mechanism of inhibition of human neutrophil elastase by thiazoles 3a–3j was determined using double-reciprocal plots of Lineweaver-Burk plots and Dixon analysis.
The first model is one in which the inhibitor binds better to the free enzyme (competitive mechanism), while the second model is one in which the inhibitor binds better to the enzyme-substrate complex (non-competitive mechanism). Next the secondary plots of slope versus concentration of test compounds were plotted to determine the enzyme-inhibitor dissociation constants Ki, and similarly as was used to determine enzyme-substrate-inhibitor dissociation constants Kis, the secondary plots of intercept versus concentration of tested compounds were plotted.
Kinetic studies were conducted in the presence of different concentrations of substrate (5, 25, 50 and 100 µM) and test compounds (in the range of 0–500 nM). The reaction conditions were the same as in the HNE inhibition assay and the reaction was monitored for 10 min at 25 °C with the same Ex an Em wavelengths. By Lineweaver–Burk plots, kinetic values such as the Michaelis–Menten constants and maximum velocity were determined. Next, two inhibition constants for inhibitor binding with free enzyme or enzyme–substrate complex (Ki and Kis) were obtained by plotting the secondary plot of the slopes of the determined straight lines or vertical intercept (1/Vmax) versus inhibitor concentration.

Data set [2] in a line: Spontaneous hydrolysis (chemical stability) in phosphate buffer, spectrophotometric. The format is physicochemical. Conditions: 0.05 M phosphate buffer, pH 7.3, 25 °C; for half-life: t1/2 = 0.693/k'. The procedure: Testing the stability of new drugs is of great importance for obtaining a good therapeutic profile as well as the safety of their future use. Degradation impurities can reduce drug efficacy and generate undesirable side effects.
The kinetics hydrolysis of the compounds was evaluated at 25 °C in 0.05 M phosphate buffer, pH 7.3, by measuring changes in absorbance spectra during incubation using a T60U spectrophotometer (PG Instruments). The absorbance (At) at characteristic absorption maxima for each compound was measured at 10 min intervals until there was no further decrease in absorbance (Aꝏ). Using these measurements, semilogarithmic plots of the dependence of log(At–Aꝏ) on time were prepared, and k’ values were determined from the slope of these plots according to first order reaction kinetics. Half-conversion times were calculated using equation: t1/2 = 0.693/k’.

The pKi is the negative decadic logarithm of the Ki, by convention in mol/L. In general, half-life refers to how long it takes for the measured level to halve. Higher therefore signals slow loss. Regarding `CCC1(CC)C(=O)N(c2ccc(-c3csc(Nc4cc(OC)c(OC)c(OC)c4)n3)cc2)C1=O` [3c, 3,3-Diethyl-1-(4-(2-(3,4,5-trimethoxyphenylamino)thiazol-4-yl)phenyl)azetidine-2,4-dione], the “number of cells with active caspase 3” value in the data set on caspase-3 in A549 cells was “concentration-dependent increase in the number of cells with active caspase 3”. Besides, in data set [1], the “Inhibition Type” value is listed as “mixed type I inhibition”, the “Kis (enzyme-substrate-inhibitor dissociation constant)” value is listed as 99.50 nM and the pKi was 7.18. Also, in data set [2], the “k, rate constant of spontaneous hydrolysis” value came out at 0.015 min⁻¹ and the half-life came to 46.2 min.
Consider `CCC1(CC)C(=O)N(c2ccc(-c3csc(Nc4ccc(S(N)(=O)=O)cc4)n3)cc2)C1=O` [3e, 4-(4-(4-(3,3-Diethyl-2,4-dioxoazetidin-1-yl)phenyl)thiazol-2-ylamino)benzenesulfo-namide], for which, in the data set on caspase-3 in A549 cells, the “number of cells with active caspase 3” value is “concentration-dependent increase in the number of cells with active caspase 3”. In data set [1], the “Inhibition Type” value is “mixed type I inhibition”, the “Kis (enzyme-substrate-inhibitor dissociation constant)” value is recorded as 240.00 nM and the pKi was 7.45. For the same compound, in data set [2], the “k, rate constant of spontaneous hydrolysis” value amounted to 0.0175 min⁻¹ and the half-life was 39.6 min.

(Values after PMC9321231.)
